In paper PMC7827406, “Structure–Activity Relationship (SAR) Study of Spautin-1 to Entail the Discovery of Novel NEK4 Inhibitors” (International Journal of Molecular Sciences, 2021) one finds remaining activity data, which are given here for four compounds.

Where two headings read alike, the source gives them in different places.

Experiment in all cases: biochemical
What all share (parameters): Eurofins KinaseProfiler full panel at Km ATP, residual kinase activity (%) relative to DMSO

One assay concerns the target T1, TrkB(h) (Homo sapiens, UniProt Q16620).
T1 construct: gene NTRK2
In outline: (§1)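 Radiometric kinase activity assays were run with ATP at Km and compounds at 10 µM, and remaining activity (%) was reported. A separate competitive binding screen measured DNA-tagged kinase displaced from immobilized active-site ligands by qPCR, giving percent kinase still bound at 10 µM compound in DMSO.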

The next assay has as its target EGFR(L861Q)(h) (Homo sapiens, UniProt P00533, L861Q). Put shortly:
as §1

A further assay has as its target T2, VRK1(h) (Homo sapiens, UniProt Q99986).
T2 sequence (Q99986 1-396): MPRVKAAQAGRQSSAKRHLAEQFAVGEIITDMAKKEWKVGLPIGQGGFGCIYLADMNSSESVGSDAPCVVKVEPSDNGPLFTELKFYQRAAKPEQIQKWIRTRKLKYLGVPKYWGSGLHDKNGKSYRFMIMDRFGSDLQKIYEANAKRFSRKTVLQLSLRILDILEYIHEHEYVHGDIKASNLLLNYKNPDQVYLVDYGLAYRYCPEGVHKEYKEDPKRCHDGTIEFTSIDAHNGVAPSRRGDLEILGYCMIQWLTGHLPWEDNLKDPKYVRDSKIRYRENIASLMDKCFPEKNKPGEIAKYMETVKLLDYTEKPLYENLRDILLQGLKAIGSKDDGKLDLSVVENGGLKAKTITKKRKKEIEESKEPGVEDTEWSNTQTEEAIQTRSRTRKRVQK
Put shortly:
as §1

The next assay concerns the target T3, PKCμ(h) (Homo sapiens, UniProt Q15139).
T3 construct: gene PRKD1
T3 sequence (Q15139 1-912): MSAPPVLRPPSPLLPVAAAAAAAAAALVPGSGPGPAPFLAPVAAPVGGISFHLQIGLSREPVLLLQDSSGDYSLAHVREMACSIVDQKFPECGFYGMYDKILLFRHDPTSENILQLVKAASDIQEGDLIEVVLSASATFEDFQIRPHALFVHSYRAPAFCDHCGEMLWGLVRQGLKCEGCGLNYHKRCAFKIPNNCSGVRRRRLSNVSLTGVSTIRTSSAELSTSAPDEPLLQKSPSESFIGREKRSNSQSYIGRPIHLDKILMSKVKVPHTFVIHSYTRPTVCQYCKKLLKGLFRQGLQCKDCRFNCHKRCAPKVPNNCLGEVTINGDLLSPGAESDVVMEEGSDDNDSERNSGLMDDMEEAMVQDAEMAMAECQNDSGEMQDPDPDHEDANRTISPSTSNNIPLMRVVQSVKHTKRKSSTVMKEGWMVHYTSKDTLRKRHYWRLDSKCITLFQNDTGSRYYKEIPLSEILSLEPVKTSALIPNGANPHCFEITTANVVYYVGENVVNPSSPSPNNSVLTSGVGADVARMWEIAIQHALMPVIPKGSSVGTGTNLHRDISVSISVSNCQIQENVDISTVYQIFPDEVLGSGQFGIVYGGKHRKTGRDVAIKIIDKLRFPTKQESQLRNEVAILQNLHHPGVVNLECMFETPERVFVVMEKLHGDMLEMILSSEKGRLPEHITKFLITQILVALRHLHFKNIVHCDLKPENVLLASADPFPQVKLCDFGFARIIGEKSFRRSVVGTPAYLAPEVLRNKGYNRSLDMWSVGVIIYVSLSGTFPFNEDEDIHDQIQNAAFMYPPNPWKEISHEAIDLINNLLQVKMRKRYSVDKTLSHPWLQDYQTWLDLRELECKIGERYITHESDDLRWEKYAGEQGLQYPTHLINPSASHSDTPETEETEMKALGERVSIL
Put shortly:
as §1

Another assay addresses NEK6(h) (Homo sapiens, UniProt Q9HC98). Put shortly: as §1
A further assay deals with T4, Rsk1(h) (Homo sapiens, UniProt Q15418).
T4 construct: gene RPS6KA1
In outline: as §1

Where [1] appears, read: read-out: Residual activity (%) 5at.
The mark [2] stands for this setting: read-out: Residual activity (%) 5ay.
Setting [3] is: read-out: Residual activity (%) 5as.
Where [4] appears, read: read-out: Residual activity (%) Spautin-1 5aa.

T1 sequence (Q16620 whole entry): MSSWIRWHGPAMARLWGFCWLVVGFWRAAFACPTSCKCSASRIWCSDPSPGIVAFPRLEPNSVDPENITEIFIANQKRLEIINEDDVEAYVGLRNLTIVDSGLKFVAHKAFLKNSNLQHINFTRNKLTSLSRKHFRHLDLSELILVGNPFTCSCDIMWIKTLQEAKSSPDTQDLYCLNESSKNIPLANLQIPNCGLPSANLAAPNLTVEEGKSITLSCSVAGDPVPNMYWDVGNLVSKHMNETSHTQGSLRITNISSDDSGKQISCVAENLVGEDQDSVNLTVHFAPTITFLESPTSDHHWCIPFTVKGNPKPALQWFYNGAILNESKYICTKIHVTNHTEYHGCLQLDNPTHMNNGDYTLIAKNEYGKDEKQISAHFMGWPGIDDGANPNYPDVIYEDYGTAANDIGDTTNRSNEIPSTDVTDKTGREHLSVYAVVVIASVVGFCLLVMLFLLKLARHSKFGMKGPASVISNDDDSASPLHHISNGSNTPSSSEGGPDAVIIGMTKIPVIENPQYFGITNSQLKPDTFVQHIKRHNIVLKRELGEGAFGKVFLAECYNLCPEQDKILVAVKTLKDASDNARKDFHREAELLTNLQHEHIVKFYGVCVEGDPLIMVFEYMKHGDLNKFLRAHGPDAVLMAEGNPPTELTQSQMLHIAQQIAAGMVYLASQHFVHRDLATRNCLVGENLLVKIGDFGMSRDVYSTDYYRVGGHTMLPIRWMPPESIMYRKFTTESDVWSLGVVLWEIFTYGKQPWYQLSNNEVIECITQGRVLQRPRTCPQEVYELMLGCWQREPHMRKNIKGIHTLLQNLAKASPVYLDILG
T4 sequence (Q15418 whole entry): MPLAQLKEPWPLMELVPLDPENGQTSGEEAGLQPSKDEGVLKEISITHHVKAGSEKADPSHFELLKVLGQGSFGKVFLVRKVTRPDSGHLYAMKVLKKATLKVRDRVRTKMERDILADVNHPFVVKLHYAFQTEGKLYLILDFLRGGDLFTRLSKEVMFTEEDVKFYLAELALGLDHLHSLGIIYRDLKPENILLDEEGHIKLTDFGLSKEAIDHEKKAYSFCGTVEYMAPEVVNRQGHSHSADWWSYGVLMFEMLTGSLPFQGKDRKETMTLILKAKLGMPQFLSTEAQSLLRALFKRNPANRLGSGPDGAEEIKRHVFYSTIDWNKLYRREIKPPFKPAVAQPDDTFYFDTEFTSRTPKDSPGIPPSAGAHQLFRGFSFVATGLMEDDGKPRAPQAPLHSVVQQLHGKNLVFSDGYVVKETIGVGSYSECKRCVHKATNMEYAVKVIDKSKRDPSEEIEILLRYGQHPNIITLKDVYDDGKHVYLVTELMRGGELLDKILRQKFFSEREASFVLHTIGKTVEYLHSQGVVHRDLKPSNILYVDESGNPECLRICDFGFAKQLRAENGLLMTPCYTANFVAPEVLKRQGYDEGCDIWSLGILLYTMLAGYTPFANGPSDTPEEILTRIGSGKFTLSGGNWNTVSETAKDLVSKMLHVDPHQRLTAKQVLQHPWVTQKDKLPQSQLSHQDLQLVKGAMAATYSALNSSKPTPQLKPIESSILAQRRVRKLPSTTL
Chain of NEK6(h) (Q9HC98 whole entry): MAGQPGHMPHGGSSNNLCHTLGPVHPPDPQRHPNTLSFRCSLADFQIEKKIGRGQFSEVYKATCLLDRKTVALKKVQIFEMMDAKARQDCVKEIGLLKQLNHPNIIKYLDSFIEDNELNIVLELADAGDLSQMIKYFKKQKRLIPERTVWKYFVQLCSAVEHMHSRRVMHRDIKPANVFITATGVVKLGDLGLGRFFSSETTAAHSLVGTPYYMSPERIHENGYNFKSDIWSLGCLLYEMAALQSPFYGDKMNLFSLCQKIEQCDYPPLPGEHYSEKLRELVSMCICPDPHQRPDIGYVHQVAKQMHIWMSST
Chain of EGFR(L861Q)(h) (P00533 whole entry L861Q): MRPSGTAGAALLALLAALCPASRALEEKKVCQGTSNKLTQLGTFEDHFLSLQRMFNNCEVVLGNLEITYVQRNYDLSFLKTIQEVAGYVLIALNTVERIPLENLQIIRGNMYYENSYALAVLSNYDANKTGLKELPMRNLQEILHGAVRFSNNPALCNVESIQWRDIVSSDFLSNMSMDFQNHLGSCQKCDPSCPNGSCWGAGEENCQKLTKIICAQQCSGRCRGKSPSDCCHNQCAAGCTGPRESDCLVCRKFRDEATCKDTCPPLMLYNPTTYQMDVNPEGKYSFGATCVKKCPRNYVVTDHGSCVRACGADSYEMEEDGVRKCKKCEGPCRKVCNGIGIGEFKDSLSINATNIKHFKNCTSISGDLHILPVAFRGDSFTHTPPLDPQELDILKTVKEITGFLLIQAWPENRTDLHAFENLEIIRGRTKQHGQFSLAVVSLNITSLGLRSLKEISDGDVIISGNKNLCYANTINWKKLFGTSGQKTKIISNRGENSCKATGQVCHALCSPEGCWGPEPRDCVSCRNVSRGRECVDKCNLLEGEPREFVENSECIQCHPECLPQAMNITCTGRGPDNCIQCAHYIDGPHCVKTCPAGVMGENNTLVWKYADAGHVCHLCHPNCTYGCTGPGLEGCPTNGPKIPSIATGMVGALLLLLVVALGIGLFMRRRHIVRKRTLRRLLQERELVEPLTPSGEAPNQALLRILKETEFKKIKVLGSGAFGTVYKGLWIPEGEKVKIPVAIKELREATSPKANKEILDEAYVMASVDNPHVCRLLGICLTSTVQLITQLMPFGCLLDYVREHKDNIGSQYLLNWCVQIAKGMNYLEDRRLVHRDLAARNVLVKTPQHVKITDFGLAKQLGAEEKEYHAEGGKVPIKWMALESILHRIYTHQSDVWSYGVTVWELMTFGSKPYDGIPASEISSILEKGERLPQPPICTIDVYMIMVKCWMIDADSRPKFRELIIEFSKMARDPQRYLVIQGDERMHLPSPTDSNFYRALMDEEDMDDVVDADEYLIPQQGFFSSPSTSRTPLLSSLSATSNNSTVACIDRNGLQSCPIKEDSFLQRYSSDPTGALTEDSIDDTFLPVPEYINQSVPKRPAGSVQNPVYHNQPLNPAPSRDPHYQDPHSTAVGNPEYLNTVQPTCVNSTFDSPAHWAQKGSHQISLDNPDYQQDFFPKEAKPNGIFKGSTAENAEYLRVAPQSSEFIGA

Regarding `Fc1ccc2ncnc(NCCc3ccc(Cl)cc3)c2c1` [5at, N-[2-(4-Chlorophenyl)Ethyl]-6-Fluoro-4-Quinazolinamine], the remaining activity at 10 µM turned out to be 81% on TrkB(h) (setting [1]); 73% on EGFR(L861Q)(h) (setting [1]); 79% at VRK1(h) (setting [1]); 80% on PKCμ(h) (setting [1]); 79% at NEK6(h) (setting [1]); 103% on Rsk1(h) (setting [1]).
In the case of `COc1ccc2ncnc(Nc3cccc(F)c3)c2c1` [5ay, N-(3-Fluorophenyl)-6-Methoxy-4-Quinazolinamine], the remaining activity at 10 µM on TrkB(h) (setting [2]) amounted to 96%; on VRK1(h) (setting [2]), 89%; on PKCμ(h) (setting [2]), 93%; on NEK6(h) (setting [2]), 91%; on Rsk1(h) (setting [2]), 116%.
On to `Fc1ccc(CCNc2ncnc3ccc(F)cc23)cc1` [5as, 6-Fluoro-N-[2-(4-Fluorophenyl)Ethyl]-4-Quinazolinamine], for which the remaining activity at 10 µM at TrkB(h) (setting [3]) is 81%; on EGFR(L861Q)(h) (setting [3]), 51%; at VRK1(h) (setting [3]), 82%; at PKCμ(h) (setting [3]), 85%; on NEK6(h) (setting [3]), 94%; at Rsk1(h) (setting [3]), 110%.
In the case of `Fc1ccc(CNc2ncnc3ccc(F)cc23)cc1` [5aa, 6-Fluoro-N-(4-fluorobenzyl)-4-Quinazolinamine], the remaining activity at 10 µM on TrkB(h) (setting [4]) was determined as 87%; at EGFR(L861Q)(h) (setting [4]) it was 36%; on VRK1(h) (setting [4]), 94%; on PKCμ(h) (setting [4]), 97%; on NEK6(h) (setting [4]), 103%; at Rsk1(h) (setting [4]) it was 102%.
